Assay results as given in PubChem BioAssay (NCI).
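Where inhibition never reached the appropriate level, the endpoint shown equals the highest concentration tested. Otherwise, values were interpolated linearly from a five-concentration, 48-hour dose response in 96-well plates. TGI is the concentration that stops growth completely.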

How the values were obtained:
Assay in all cases: NCI-60 cell line screen, 48 h
UACC-257 melanoma = tested on: UACC-257 melanoma
HCT-116 colon = tested on: HCT-116 colon
PC-3 prostate = tested on: PC-3 prostate
KM12 colon = tested on: KM12 colon
RXF 393 renal = tested on: RXF 393 renal
MOLT-4 leukemia = tested on: MOLT-4 leukemia
MDA-N = tested on: MDA-N
U251 CNS = tested on: U251 CNS
K-562 leukemia = tested on: K-562 leukemia
MDA-MB-231 breast = tested on: MDA-MB-231 breast
NCI-H226 lung = tested on: NCI-H226 lung
SK-MEL-2 melanoma = tested on: SK-MEL-2 melanoma
COLO 205 colon = tested on: COLO 205 colon
SNB-19 CNS = tested on: SNB-19 CNS
SW-620 colon = tested on: SW-620 colon
SF-268 CNS = tested on: SF-268 CNS
MCF7 breast = tested on: MCF7 breast
NCI-H522 lung = tested on: NCI-H522 lung
A498 renal = tested on: A498 renal
HOP-92 NSCLC = tested on: HOP-92 NSCLC

| SMILES | TGI (UACC-257 melanoma) [µM] | TGI (HCT-116 colon) [µM] | TGI (PC-3 prostate) [µM] | TGI (KM12 colon) [µM] | TGI (RXF 393 renal) [µM] | TGI (MOLT-4 leukemia) [µM] | TGI (MDA-N) [µM] | TGI (U251 CNS) [µM] | TGI (K-562 leukemia) [µM] | TGI (MDA-MB-231 breast) [µM] | TGI (NCI-H226 lung) [µM] | TGI (SK-MEL-2 melanoma) [µM] | TGI (COLO 205 colon) [µM] | TGI (SNB-19 CNS) [µM] | TGI (SW-620 colon) [µM] | TGI (SF-268 CNS) [µM] | TGI (MCF7 breast) [µM] | TGI (NCI-H522 lung) [µM] | TGI (A498 renal) [µM] | TGI (HOP-92 NSCLC) [µM] |
| --- | --- | --- | --- | --- | --- | --- | --- | --- | --- | --- | --- | --- | --- | --- | --- | --- | --- | --- | --- | --- |
| CC/C(Cl)=N\OC(=O)Nc1ccc(OC)c(C)c1 | 37 | 29.6 | > 92.6 | > 60 | 31 | 47 | 41 | > 100 | > 91.2 | > 88.6 | 70.4 | 49.9 | 31.4 | > 100 | > 68.8 | > 77.1 | > 64.3 | 4.18 | 61.2 | 5.69 |
| CCS(=O)c1c2cc(OC)ccc2nc2ccc(OC)cc12 (stereo not given) | 12 | 7.52 | 24.9 | 41 | 17.2 | > 23.8 | 16.3 | > 55.3 | 5.81 | 11.2 | 47.8 | 35.3 | 15.4 | 45.4 | > 65.9 | > 62 | > 100 | 3.97 | 33.6 | > 53.1 |
